Values quoted from earlier work as cited in patent publication US20150250776A1, “COMPOSITIONS AND METHODS FOR ORAL DELIVERY OF ENCAPSULATED 3-AMINOPYRIDINE-2-CARBOXALDEHYDE PARTICLES” (NANOTHERAPEUTICS, INC., priority 2014, published 2015).

Key:
[1] = tested on: cell lines selected for resistance to hydroxyurea
tumor cell lines = tumor cell lines compared with a fibroblast cell line

Nc1cccnc1C=O [3-AP, 3-aminopyridine-2-carboxaldehyde]
activity in hydroxyurea-resistant cell lines [1]: active
cytotoxic effects, tumor versus fibroblast cell line (tumor cell lines): preferential cytotoxic effects
solubility in DMSO (DMSO): soluble
solubility in aqueous solutions (aqueous solutions): poor solubility
